Here are results for 19 compounds from ChEMBL document CHEMBL3875224, “Synthesis, docking, cytotoxicity, and LTA4H inhibitory activity of new gingerol derivatives as potential colorectal cancer therapy” (Bioorg Med Chem, 2017).

Bounds are passed on as bounds.

A short description of data set [1]: Cytotoxicity against human HCT116 cells assessed as reduction in cell viability after 48 hrs by WST1 assay. It is filed as functional, cell-based. The note with it: HCT-116, 48 h.
The nature of data set [2]: Cytotoxicity against human TIG1 cells assessed as reduction in cell viability after 48 hrs by WST1 assay. It is filed as toxicity, cell-based.
The nature of data set [3]: Cytotoxicity against human HF19 cells assessed as reduction in cell viability after 48 hrs by WST1 assay. In kind it is toxicity, cell-based.
Data set [4] has as its system HCT-116. Put plainly: Selectivity index, ratio of IC50 for human TIG1 cells to IC50 for human HCT116 cells. In kind it is functional.
The target of data set [5] is T1, Leukotriene A-4 hydrolase (Homo sapiens, UniProt P09960).
T1 sequence (P09960 whole entry): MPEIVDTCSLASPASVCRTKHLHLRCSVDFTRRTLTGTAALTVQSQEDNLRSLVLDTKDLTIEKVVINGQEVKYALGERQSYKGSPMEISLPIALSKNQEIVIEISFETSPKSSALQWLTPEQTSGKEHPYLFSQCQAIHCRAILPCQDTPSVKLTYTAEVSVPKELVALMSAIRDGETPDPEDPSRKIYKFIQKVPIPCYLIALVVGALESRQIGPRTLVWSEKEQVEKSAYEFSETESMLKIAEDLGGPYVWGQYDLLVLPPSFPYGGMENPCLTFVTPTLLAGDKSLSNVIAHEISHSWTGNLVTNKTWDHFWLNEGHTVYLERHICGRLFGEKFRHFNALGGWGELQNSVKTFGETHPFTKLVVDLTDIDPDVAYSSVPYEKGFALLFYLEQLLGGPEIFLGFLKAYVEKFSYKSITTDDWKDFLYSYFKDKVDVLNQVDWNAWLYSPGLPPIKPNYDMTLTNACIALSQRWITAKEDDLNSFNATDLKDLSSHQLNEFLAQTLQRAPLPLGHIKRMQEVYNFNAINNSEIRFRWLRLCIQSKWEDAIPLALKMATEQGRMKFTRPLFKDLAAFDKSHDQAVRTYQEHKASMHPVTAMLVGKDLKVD
Put plainly: Inhibition of recombinant C-terminal His-tagged human LTA4H aminopeptidase activity expressed in Escherichia coli using L-alanine-4-nitro-anilide hydrochloride as substrate preincubated for 20 mins followed by substrate addition.

Data set [6] concerns the target T1, Leukotriene A-4 hydrolase. Put plainly: Inhibition of recombinant C-terminal His-tagged human LTA4H epoxide hydrolase activity expressed in Escherichia coli assessed as reduction in LTB4 production using LTA4 as substrate preincubated for 20 mins followed by substrate addition measured after 30 mins by enzyme immunoassay.

`CCCCCC(O)CC(=O)CCc1ccc(O)c(OC)c1` (configuration not stated): the figures for the IC50 in data set [1], in data set [5] and in data set [6] were 45.1 µM, 56.1 µM and 58.3 µM, respectively. Besides, the IC50 at 48 h in data set [2] was 75.2 µM; in data set [3], more than 100 µM. The “Ratio IC50” value in data set [4] worked out at 1.67.

Consider `CCCCCC(CC(=O)CCc1ccc(O)c(OC)c1)OC` (configuration not stated), for which the IC50 in data set [1], in data set [5] and in data set [6] was more than 100 µM in each case. Besides, the IC50 at 48 h in data set [2] and in data set [3] was more than 100 µM each time.

Consider `CCCC(O)CC(=O)CCc1ccc(O)c(OC)c1` (configuration not stated), for which the IC50 in data set [1], in data set [5] and in data set [6] was more than 100 µM in each case. The IC50 at 48 h in data set [2] and in data set [3] was more than 100 µM each time.

For `CCCCCCCCCC(O)CC(=O)CCc1ccc(O)c(OC)c1` (configuration not stated), the figures for the IC50 in data set [1], in data set [5] and in data set [6] were 33.4 µM, 21.6 µM and 15.2 µM, respectively. Besides, the IC50 at 48 h in data set [2] and in data set [3] was more than 100 µM throughout. In data set [4], the “Ratio IC50” value was determined as 3.

Consider `CCCCCCCC(O)CC(=O)CCc1ccc(O)c(OC)c1` (configuration not stated), for which the IC50 in data set [1], in data set [5] and in data set [6] was more than 100 µM each time. Also, the figures for the 50% inhibitory concentration (IC50) at 48 h in data set [2] and in data set [3] were 55.6 µM and 77.6 µM, respectively. Further, the “Ratio IC50” value in data set [4] is 0.55.

In the case of `Nc1nc(-c2ccc(Cc3ccccc3)cc2)cs1`, the figures for the IC50 in data set [1], in data set [5] and in data set [6] were 30.5 µM, 7.61 µM and 12.4 µM, respectively. Moreover, the values for the IC50 at 48 h in data set [2] and in data set [3] were 84.3 µM and more than 100 µM, respectively. Besides, in data set [4], the “Ratio IC50” value is reported as 2.76.

`CCCCC/C=C/CCC(O)CC(=O)CCc1ccc(O)c(OC)c1` (configuration not stated): the IC50 in data set [1] amounted to 46 µM; in data set [5], 45.6 µM; in data set [6] it was 67.1 µM. For the same compound, the IC50 at 48 h is more than 100 µM in data set [2] and 97.5 µM in data set [3]. For the same compound, in data set [4], the “Ratio IC50” value is given as 2.17.

For the compound `CCCCCC(O)CC(=O)CCc1cc(OC)c(O)c(-c2cc(CCC(=O)CC(O)CCCCC)cc(OC)c2O)c1` (configuration not stated), the IC50 in data set [1] was more than 100 µM; in data set [5] it was more than 100 µM; in data set [6], 77.8 µM. Further, the IC50 at 48 h in data set [2] stood at 63.1 µM; in data set [3], 54.8 µM. Moreover, the “Ratio IC50” value in data set [4] is 0.63.

On to `COc1ccc(CCC(C)=O)cc1OC`, for which the IC50 in data set [1], in data set [5] and in data set [6] was more than 100 µM each time. In addition, the IC50 at 48 h in data set [2] and in data set [3] was more than 100 µM throughout.

In the case of `CCCCC/C=C/C(=O)CCc1ccc(OC)c(OC)c1`, the IC50 in data set [1] came to 1.54 µM; in data set [5], 4.92 µM; in data set [6], 11.3 µM. Further, the IC50 at 48 h was 80.6 µM in data set [2] and more than 100 µM in data set [3]. Moreover, in data set [4], the “Ratio IC50” value amounted to 52.3.

Turning to `CCCCCC(O)CC(=O)CCc1ccc(OCC=C(C)C)c(OC)c1` (configuration not stated), the IC50 worked out at 21.5 µM in data set [1], 3.01 µM in data set [5] and 7.25 µM in data set [6]. Besides, the values for the IC50 at 48 h in data set [2] and in data set [3] were 83.2 µM and more than 100 µM, respectively. In addition, the “Ratio IC50” value in data set [4] is on record as 3.87.

With `CC(C)=CCCC(C)[C@H]1CC=C(C)C(O)[C@H]1O` (some centres not stated), the IC50 in data set [1], in data set [5] and in data set [6] was more than 100 µM throughout. Also, the IC50 at 48 h in data set [2] and in data set [3] was more than 100 µM throughout. In addition, the “Ratio IC50” value in data set [4] is 1.

Consider `CCCCC/C=C/C(=O)CCc1ccc(OC(C)=O)c(OC)c1`, for which the IC50 in data set [1] stood at 26.9 µM; in data set [5] it was 9.31 µM; in data set [6], 29.5 µM. Also, the IC50 at 48 h in data set [2] and in data set [3] was more than 100 µM in each case. The “Ratio IC50” value in data set [4] came out at 3.72.

Consider `CCCCCC(CC(=O)CCc1ccc(OC(C)=O)c(OC)c1)OC(C)=O` (configuration not stated), for which the figures for the IC50 in data set [1], in data set [5] and in data set [6] were 30.9 µM, 22.1 µM and 27.6 µM, respectively. For the same compound, the concentration for half-maximal inhibition (IC50) at 48 h in data set [2] and in data set [3] was more than 100 µM in each case. In data set [4], the “Ratio IC50” value is reported as 3.23.

Regarding `CCCCCC(O)CC(=O)CCc1ccc(OC)c(OC)c1` (configuration not stated), the IC50 in data set [1] is 76.5 µM; in data set [5], more than 100 µM; in data set [6], more than 100 µM. Also, the results for the IC50 at 48 h in data set [2] and in data set [3] were 92.8 µM and 88.4 µM, respectively. Also, the “Ratio IC50” value in data set [4] turned out to be 1.21.

Turning to `C=CCOc1ccc(CCC(=O)CC(O)CCCCC)cc1OC` (configuration not stated), the half-maximal inhibitory concentration (IC50) in data set [1] is more than 100 µM; in data set [5] it was 56.3 µM; in data set [6], 66.4 µM. Further, the IC50 at 48 h in data set [2] is 64.6 µM; in data set [3], more than 100 µM. Besides, the “Ratio IC50” value in data set [4] was 0.65.

For `CCCCCC(CC(=O)CCc1ccc(OC)c(OC)c1)OC` (configuration not stated), the IC50 in data set [1], in data set [5] and in data set [6] was more than 100 µM each time. The IC50 at 48 h in data set [2] and in data set [3] was more than 100 µM in each case.

Consider `CCCCC/C=C/C(=O)CCc1ccc(O)c(OC)c1` [SHOGAOL], for which the IC50 in data set [1] amounted to 12.9 µM; in data set [5] it was 12.5 µM; in data set [6] it was 24.6 µM. Besides, the IC50 at 48 h in data set [2] and in data set [3] was more than 100 µM throughout. Besides, the “Ratio IC50” value in data set [4] came to 7.77.

With `CC(C)C[C@H](NC(=O)[C@@H](O)[C@H](N)Cc1ccccc1)C(=O)O` [UBENIMEX], in data set [1], the IC50 stood at 42.5 µM. Also, the IC50 at 48 h in data set [2] is 77.8 µM; in data set [3] it was 89.5 µM.
